Data reported in US8192962B2, “Processes for detecting toxic substances” (Daikin Industries, Ltd., priority 2001, dated 2012).

System: Genes belonging to other category
Assay: DNA chip mRNA expression in yeast, genes belonging to other category (Table 9)
Type: cell-based, Saccharomyces cerevisiae S288C
In short: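 Cells were grown at 25° C. in YPD, treated at logarithmic phase for 2 h with a chemical at a concentration inhibiting growth but not causing death, and compared with untreated cultures. Labeled cDNA was hybridized to a DNA chip carrying all yeast genes, and the expression ratio was taken from scanner fluorescence.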

C=CC=O [(14), acrolein]
The level of expressed mRNA in the presence of chemical substance/The level of expressed mRNA in the absence of chemical substance (yeast gene YMR104C): 1.1
The level of expressed mRNA in the presence of chemical substance/The level of expressed mRNA in the absence of chemical substance (yeast gene YMR219W): 0.5
The level of expressed mRNA in the presence of chemical substance/The level of expressed mRNA in the absence of chemical substance (yeast gene YMR226C): 1.6
The level of expressed mRNA in the presence of chemical substance/The level of expressed mRNA in the absence of chemical substance (yeast gene YMR262W): 0.9
The level of expressed mRNA in the presence of chemical substance/The level of expressed mRNA in the absence of chemical substance (yeast gene YMR275C): 0.8
The level of expressed mRNA in the presence of chemical substance/The level of expressed mRNA in the absence of chemical substance (yeast gene YMR276W): 1.2
The level of expressed mRNA in the presence of chemical substance/The level of expressed mRNA in the absence of chemical substance (yeast gene YMR314W): 1.0
The level of expressed mRNA in the presence of chemical substance/The level of expressed mRNA in the absence of chemical substance (yeast gene YNL006W): 0.8
The level of expressed mRNA in the presence of chemical substance/The level of expressed mRNA in the absence of chemical substance (yeast gene YNL007C): 0.4
The level of expressed mRNA in the presence of chemical substance/The level of expressed mRNA in the absence of chemical substance (yeast gene YNL093W): 1.1
The level of expressed mRNA in the presence of chemical substance/The level of expressed mRNA in the absence of chemical substance (yeast gene YNL333W): 1.9
The level of expressed mRNA in the presence of chemical substance/The level of expressed mRNA in the absence of chemical substance (yeast gene YNR007C): 1.5
The level of expressed mRNA in the presence of chemical substance/The level of expressed mRNA in the absence of chemical substance (yeast gene YNR010W): 1.3
The level of expressed mRNA in the presence of chemical substance/The level of expressed mRNA in the absence of chemical substance (yeast gene YNR069C): 2.1
The level of expressed mRNA in the presence of chemical substance/The level of expressed mRNA in the absence of chemical substance (yeast gene YOL013C): 0.9
The level of expressed mRNA in the presence of chemical substance/The level of expressed mRNA in the absence of chemical substance (yeast gene YOL038W): 2.1
The level of expressed mRNA in the presence of chemical substance/The level of expressed mRNA in the absence of chemical substance (yeast gene YOL109W): 1.4
The level of expressed mRNA in the presence of chemical substance/The level of expressed mRNA in the absence of chemical substance (yeast gene YOL164W): 1.3
The level of expressed mRNA in the presence of chemical substance/The level of expressed mRNA in the absence of chemical substance (yeast gene YOR036W): 1.2
The level of expressed mRNA in the presence of chemical substance/The level of expressed mRNA in the absence of chemical substance (yeast gene YOR117W): 1.0
The level of expressed mRNA in the presence of chemical substance/The level of expressed mRNA in the absence of chemical substance (yeast gene YOR124C): 0.8
The level of expressed mRNA in the presence of chemical substance/The level of expressed mRNA in the absence of chemical substance (yeast gene YOR132W): 0.7
The level of expressed mRNA in the presence of chemical substance/The level of expressed mRNA in the absence of chemical substance (yeast gene YOR157C): 2.2
The level of expressed mRNA in the presence of chemical substance/The level of expressed mRNA in the absence of chemical substance (yeast gene YOR181W): 0.9
The level of expressed mRNA in the presence of chemical substance/The level of expressed mRNA in the absence of chemical substance (yeast gene YOR185C): 2.1
The level of expressed mRNA in the presence of chemical substance/The level of expressed mRNA in the absence of chemical substance (yeast gene YOR198C): 1.1
The level of expressed mRNA in the presence of chemical substance/The level of expressed mRNA in the absence of chemical substance (yeast gene YOR229W): 1.0
The level of expressed mRNA in the presence of chemical substance/The level of expressed mRNA in the absence of chemical substance (yeast gene YOR257W): 1.5
The level of expressed mRNA in the presence of chemical substance/The level of expressed mRNA in the absence of chemical substance (yeast gene YOR259C): 1.2
The level of expressed mRNA in the presence of chemical substance/The level of expressed mRNA in the absence of chemical substance (yeast gene YOR261C): 1.8
The level of expressed mRNA in the presence of chemical substance/The level of expressed mRNA in the absence of chemical substance (yeast gene YOR265W): 2.5
The level of expressed mRNA in the presence of chemical substance/The level of expressed mRNA in the absence of chemical substance (yeast gene YOR288C): 0.8
The level of expressed mRNA in the presence of chemical substance/The level of expressed mRNA in the absence of chemical substance (yeast gene YOR298W): 2.1
The level of expressed mRNA in the presence of chemical substance/The level of expressed mRNA in the absence of chemical substance (yeast gene YOR327C): 1.5
The level of expressed mRNA in the presence of chemical substance/The level of expressed mRNA in the absence of chemical substance (yeast gene YOR355W): 0.6
The level of expressed mRNA in the presence of chemical substance/The level of expressed mRNA in the absence of chemical substance (yeast gene YOR362C): 1.4
The level of expressed mRNA in the presence of chemical substance/The level of expressed mRNA in the absence of chemical substance (yeast gene YOR367W): 1.5
The level of expressed mRNA in the presence of chemical substance/The level of expressed mRNA in the absence of chemical substance (yeast gene YOR383C): 0.6
The level of expressed mRNA in the presence of chemical substance/The level of expressed mRNA in the absence of chemical substance (yeast gene YPL089C): 0.8
The level of expressed mRNA in the presence of chemical substance/The level of expressed mRNA in the absence of chemical substance (yeast gene YPL109C): 1.3
The level of expressed mRNA in the presence of chemical substance/The level of expressed mRNA in the absence of chemical substance (yeast gene YPL149W): 1.0
The level of expressed mRNA in the presence of chemical substance/The level of expressed mRNA in the absence of chemical substance (yeast gene YPL154C): 0.8
The level of expressed mRNA in the presence of chemical substance/The level of expressed mRNA in the absence of chemical substance (yeast gene YPL218W): 1.5
The level of expressed mRNA in the presence of chemical substance/The level of expressed mRNA in the absence of chemical substance (yeast gene YPR015C): 1.5
The level of expressed mRNA in the presence of chemical substance/The level of expressed mRNA in the absence of chemical substance (yeast gene YPR073C): 1.5
The level of expressed mRNA in the presence of chemical substance/The level of expressed mRNA in the absence of chemical substance (yeast gene YPR103W): 1.8
The level of expressed mRNA in the presence of chemical substance/The level of expressed mRNA in the absence of chemical substance (yeast gene YPR108W): 1.0
The level of expressed mRNA in the presence of chemical substance/The level of expressed mRNA in the absence of chemical substance (yeast gene YPR185W): 1.0
